Measured values as given in patent publication US20250320213A1, “Nitrogen-Containing Heterocyclic Compounds” (Pfizer Inc., priority 2024, published 2025).
pEC50, pIC50: −log10 of the molar value.

Tests used:
[1] = test system: CCL17 secretion in peripheral human whole blood; test: Human Whole Blood (HWB) CCL17 TR-FRET Assay (IL-13 stimulated CCL17 secretion); type: cell-based; conditions: human whole blood
How it was run: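 Heparin-anticoagulated human blood; cpd 11-pt 3-fold dilution, duplicate, 2 h 37 °C preinc; IL-13 10 ng/mL final, 48 h 37 °C; spin, serum CCL17 by TR-FRET ELISA, 16 h RT, 665/615 ratio; IC50.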

STAT6 = target: T1, STAT6 (Homo sapiens, UniProt P42226); test: STAT6 Reporter Luciferase Assay (IL-13 stimulated HaCaT keratinocyte NanoLuc reporter cells); type: cell-based; conditions: IL-13 stimulated HaCaT STAT6 NanoLuc reporter cells; read-out: Reporter EC50
T1 construct: stably transfected HaCaT keratinocyte cell line, which expresses NanoLuc luciferase reporter gene under the transcriptional control of the STAT6 responsive promoter; endogenous in cells; host or cells: HaCaT keratinocyte reporter cell line (stably transfected with a NanoLuc reporter)
T1 sequence (P42226 1-847): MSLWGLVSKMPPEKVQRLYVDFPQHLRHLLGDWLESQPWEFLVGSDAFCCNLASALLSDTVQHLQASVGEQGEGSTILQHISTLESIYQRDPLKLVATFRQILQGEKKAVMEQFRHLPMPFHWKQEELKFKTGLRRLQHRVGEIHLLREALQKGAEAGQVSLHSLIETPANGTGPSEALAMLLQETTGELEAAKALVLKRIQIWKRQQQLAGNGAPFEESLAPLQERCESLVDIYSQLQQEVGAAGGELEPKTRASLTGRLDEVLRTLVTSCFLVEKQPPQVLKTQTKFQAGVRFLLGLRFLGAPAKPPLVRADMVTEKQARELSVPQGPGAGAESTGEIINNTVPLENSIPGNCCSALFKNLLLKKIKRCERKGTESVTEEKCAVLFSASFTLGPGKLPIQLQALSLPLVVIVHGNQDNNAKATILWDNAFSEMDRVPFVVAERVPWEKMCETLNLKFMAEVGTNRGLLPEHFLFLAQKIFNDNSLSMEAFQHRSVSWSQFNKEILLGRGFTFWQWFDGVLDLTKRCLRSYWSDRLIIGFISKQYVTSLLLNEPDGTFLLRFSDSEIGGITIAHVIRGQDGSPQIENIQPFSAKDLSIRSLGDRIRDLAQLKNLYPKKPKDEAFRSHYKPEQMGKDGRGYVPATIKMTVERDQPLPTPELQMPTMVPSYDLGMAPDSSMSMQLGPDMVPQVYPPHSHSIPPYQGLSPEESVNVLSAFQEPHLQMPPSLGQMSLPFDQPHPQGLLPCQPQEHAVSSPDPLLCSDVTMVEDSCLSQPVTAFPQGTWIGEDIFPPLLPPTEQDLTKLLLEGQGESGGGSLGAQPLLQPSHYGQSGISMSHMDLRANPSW
How it was run: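 IL-13 (0.12 nM, 4 h) stimulated STAT6 reporter activity in HaCaT cells after a 2 h compound pre-incubation; NanoLuc signal was measured.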

[2] = Homo sapiens, 48 h, IL-13 10 ng/mL

Row | pIC50 [1, 2] | pEC50 (STAT6) | pIC50 ([1]; IL-13 stimulated, 48 hours) | Compound
1 | < 4.82 | < 5.00 | – | Cc1ccnc(-c2ccc(CNC(=O)c3nn(C(C)C)c4c3CN(c3ccc(C(=O)N(C)C)cc3)C[C@@H]4C)cc2)n1 [Example 730, (S)-5-(4-(dimethylcarbamoyl)phenyl)-1-isopropyl-7-methyl-N-(4-(4-methylpyrimidin-2-yl)benzyl)-4,5,6,7-tetrahydro-1H-pyrazolo[4,3-c]pyridine-3-carboxamide]
2 | 5.90 | 7.09 | – | COc1nc(-c2ccc(CNC(=O)c3nn(C(C)C)c4c3CN(c3ccc(C(=O)N(C)C)cc3)C[C@@H]4C)cc2)ncc1N [Example 731, (S)-N-(4-(5-amino-4-methoxypyrimidin-2-yl)benzyl)-5-(4-(dimethylcarbamoyl)phenyl)-1-isopropyl-7-methyl-4,5,6,7-tetrahydro-1H-pyrazolo[4,3-c]pyridine-3-carboxamide]
3 | 5.51 | 7.06 | – | CC(C)n1nc(C(=O)NCc2ccc(-c3cnn(C)c3)cc2)c2c1[C@@H](C)CN(c1ccc(C(=O)N(C)C)cc1)C2 [Example 732, (S)-5-(4-(dimethylcarbamoyl)phenyl)-1-isopropyl-7-methyl-N-(4-(1-methyl-1H-pyrazol-4-yl)benzyl)-4,5,6,7-tetrahydro-1H-pyrazolo[4,3-c]pyridine-3-carboxamide]
4 | – | 7.41 | 6.98 | rel-(R or S)-5-(5-(dimethylcarbamoyl)pyridin-2-yl)-N-(4-(3,3-dimethylureido)benzyl)-1-methyl-7- [Example 390]
